These results are taken from patent publication US20110245311A1, “Histidine Derivatives” (priority 2010, published 2011).

SMILES strings stand for the structures. A value given as a limit tells only on which side of the number the result lay.

The test system of one data set is Gram negative strains. The experiment in a line: Antibiotic activity, plate counts on Mueller-Hinton agar, Gram negative ATCC strains. It is filed as cell-based. The conditions noted are these: 2 mg/ml, 1 mg/ml; plate counts after overnight incubation at 37° C. On the procedure: The antibiotic activity of S-2-amino-3(3-phenylacetylimidazol-4-yl)propanoic acid (Compound A) was tested with a panel of standard ATCC bacteria, including 13315 Proteus vulgaris, 13883 Klebsiella pneumoniae, 25922 Escherichia coli, 27853 and Pseudomomas aeruginosa.
Doubling dilutions of Compound A were tested on its antibiotic potentials. […] Plate counts were performed. All petri plates inoculated with 1 ml 0.5McFarland turbidity of corresponding ATCC strain.

Another data set deals with Gram positives. As to the kind of experiment: Antibiotic activity, plate counts on Mueller-Hinton agar, Gram positives. It is filed as cell-based. The conditions noted are these: plate counts after overnight incubation at 37° C.
The next data set has as its system U-87 cells. The experiment in a line: Cell viability (cell count) with U-87 cells. It is filed as cell-based. The conditions noted are these: Homo sapiens, U-87 MG, 72 hours, 37° C., MEM pH 7.0, read-out: EC90 (concentration resulting in greater than 90% decrease of cell numbers).
The next data set concerns HepG2 cells. As to the kind of experiment: Cell viability of HepG2 cell line. It is filed as cell-based. The conditions noted are these: Homo sapiens. On the procedure: The antineoplastic activities of Compound A were tested with U-87, a human glioblastoma/astrocytoma cell line and HepG2, a human liver carcinoma cell line.
The antineoplastic activity of Compound A was also measured with HepG2 cells.

For the next data set, the system named is mice. The experiment in a line: Preclinical safety study in mice. It is filed as in vivo. The conditions noted are these: 300 mg/kg or 500 mg/kg orally (PO), up to 72 hours. On the procedure: Preclinical safety studies were performed with administration of different levels of doses of Compound A to mice. Toxicity was analyzed with standard clinical chemical and histopathological examination. Five mice (n=5) were treated with 300 mg/kg or 500 mg/kg orally (PO) with one hour pretreatment for PO. Autonomic signs/mortality was measured during the first hour and mortality was measured again at 3, 24, 48 and 72 hours after administration.

The subject of another data set is caspase 3. As to the kind of experiment: In vitro caspase assay (ELISA) in U-87 cells. The conditions noted are these: 5 mM, 18 hours after the addition. It is filed as cell-based, human. On the procedure: U-87 cells were used to test the effect of Compound A on the apoptotic pathway.
U-87 cells were seeded in MEM alone or in MEM supplemented with 5 mM of Compound A, in MTP. For in vitro caspase assay, the cell culture plates were removed from incubator, cells were lysed and centrifuged and the supernatant was tested for caspase levels (C3). Supernatants from each sample were tested side by side on a new microtitre plate by ELISA with AP labelled IgG C3 antibody, pNPP chromogen (Enzo Diagnostics, Farmingdale, N.Y.). Caspase assays were performed immediately after the addition of the MEM medium, with or without Compound A, and 18 hours after the addition.
A general note: An ELISA detects its analyte on a solid surface through an enzyme-linked reagent.

Take `N[C@@H](Cc1cncn1C(=O)Cc1ccccc1)C(=O)O` [Compound A, (S)-2-amino-3-(3-phenylacetylimidazol-4-yl) propanoic acid]: the “inhibition of Gram negative strains” value in the data set with Gram negative strains is on record as “did show inhibition”. For the same compound, in the data set with Gram positives, the “inhibition of Gram positives” value is reported as “No inhibition”. The EC90 in the data set with U-87 cells and in the data set on HepG2 cells was 5 mM throughout. Moreover, the cytotoxicity at 5000 µM in the data set with HepG2 cells (5 mM, read-out: decrease in cell viability) was greater than 90%. In addition, the “toxicity (autonomic signs/mortality, clinical chemical and histopathological examination)” value in the data set on mice was “No toxicity was observed”. Also, the “increase of caspase 3” value with caspase 3 is reported as “Exponential increase, in the scale of several orders of magnitude”.
